Data from ChEMBL document CHEMBL1154071, “Studies towards the identification of putative bioactive conformation of potent vasodilator arylidene N-acylhydrazone derivatives” (Eur J Med Chem, 2009).
Activity calls are given as the source filed them. No cut-off for these calls is given here.

Experiments:
[1] = target: T1, 3',5'-cyclic-AMP phosphodiesterase 4B (Homo sapiens, UniProt Q07343); assay: Inhibition of PDE4B
[2] = target: cGMP-dependent 3',5'-cyclic phosphodiesterase (Homo sapiens) (UniProt O00408); assay: Inhibition of PDE2A up to 30 uM
Sequence of cGMP-dependent 3',5'-cyclic phosphodiesterase (Homo sapiens) (O00408 whole entry): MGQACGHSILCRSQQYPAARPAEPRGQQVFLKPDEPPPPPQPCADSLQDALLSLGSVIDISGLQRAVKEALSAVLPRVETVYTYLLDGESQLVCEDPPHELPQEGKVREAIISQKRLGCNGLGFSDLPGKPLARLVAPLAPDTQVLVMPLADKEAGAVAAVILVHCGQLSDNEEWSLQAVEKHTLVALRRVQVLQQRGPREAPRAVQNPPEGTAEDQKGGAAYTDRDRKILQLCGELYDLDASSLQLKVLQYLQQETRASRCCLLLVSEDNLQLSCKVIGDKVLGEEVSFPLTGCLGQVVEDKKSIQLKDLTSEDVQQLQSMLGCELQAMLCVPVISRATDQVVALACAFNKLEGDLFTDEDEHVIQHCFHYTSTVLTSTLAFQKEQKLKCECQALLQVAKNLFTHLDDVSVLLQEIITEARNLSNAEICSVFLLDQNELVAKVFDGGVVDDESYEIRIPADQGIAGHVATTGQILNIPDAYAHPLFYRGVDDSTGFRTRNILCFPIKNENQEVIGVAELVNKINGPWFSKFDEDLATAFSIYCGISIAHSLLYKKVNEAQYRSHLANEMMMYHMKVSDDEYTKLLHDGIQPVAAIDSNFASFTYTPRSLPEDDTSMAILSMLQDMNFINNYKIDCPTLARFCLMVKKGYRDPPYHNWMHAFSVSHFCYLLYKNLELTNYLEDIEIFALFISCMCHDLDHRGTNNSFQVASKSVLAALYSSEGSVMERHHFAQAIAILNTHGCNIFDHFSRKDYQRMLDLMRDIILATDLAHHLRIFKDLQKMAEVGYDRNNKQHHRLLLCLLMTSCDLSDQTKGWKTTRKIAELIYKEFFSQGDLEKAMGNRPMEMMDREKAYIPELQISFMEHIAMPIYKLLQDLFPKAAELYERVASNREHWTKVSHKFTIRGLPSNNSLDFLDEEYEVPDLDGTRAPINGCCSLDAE

[3] = target: cGMP-specific 3',5'-cyclic phosphodiesterase (Homo sapiens) (UniProt O76074); assay: Inhibition of PDE5 up to 30 uM
[4] = tested on: Aorta; assay: Vasorelaxant activity in endothelium-intact Wistar rat thoracic aortic ring assessed as inhibition of phenylephrine-induced contraction; assay type: functional, tissue-based
[5] = tested on: Aorta; assay: Vasorelaxant activity in endothelium-denuded Wistar rat thoracic aortic ring assessed as inhibition of phenylephrine-induced contraction; assay type: functional, tissue-based
[6] = tested on: Aorta; assay: Vasorelaxant activity in endothelium-intact Wistar rat thoracic aortic ring assessed as inhibition of phenylephrine-induced contraction at 500 uM; assay type: functional
[7] = tested on: Aorta; assay: Vasorelaxant activity in endothelium-denuded Wistar rat thoracic aortic ring assessed as inhibition of phenylephrine-induced contraction at 500 uM; assay type: functional
[8] = tested on: Aorta; assay: Vasorelaxant activity in endothelium-denuded Wistar rat thoracic aortic ring assessed as inhibition of phenylephrine-induced contraction at 200 uM; assay type: functional
[9] = tested on: Aorta; assay: Vasorelaxant activity in endothelium-intact Wistar rat thoracic aortic ring assessed as inhibition of phenylephrine-induced contraction at 200 uM; assay type: functional
[10] = tested on: Aorta; assay: Vasorelaxant activity in endothelium-intact Wistar rat thoracic aortic ring assessed as complete inhibition of phenylephrine-induced contraction at 20 uM in intact endothelium; assay type: functional, tissue-based
[11] = target: T1, 3',5'-cyclic-AMP phosphodiesterase 4B; assay: Inhibition of PDE4B up to 30 uM
[12] = tested on: Aorta; assay: Vasorelaxant activity in endothelium-denuded Wistar rat thoracic aortic ring assessed as inhibition of phenylephrine-induced contraction at 100 uM; assay type: functional

T1 sequence (Q07343 whole entry): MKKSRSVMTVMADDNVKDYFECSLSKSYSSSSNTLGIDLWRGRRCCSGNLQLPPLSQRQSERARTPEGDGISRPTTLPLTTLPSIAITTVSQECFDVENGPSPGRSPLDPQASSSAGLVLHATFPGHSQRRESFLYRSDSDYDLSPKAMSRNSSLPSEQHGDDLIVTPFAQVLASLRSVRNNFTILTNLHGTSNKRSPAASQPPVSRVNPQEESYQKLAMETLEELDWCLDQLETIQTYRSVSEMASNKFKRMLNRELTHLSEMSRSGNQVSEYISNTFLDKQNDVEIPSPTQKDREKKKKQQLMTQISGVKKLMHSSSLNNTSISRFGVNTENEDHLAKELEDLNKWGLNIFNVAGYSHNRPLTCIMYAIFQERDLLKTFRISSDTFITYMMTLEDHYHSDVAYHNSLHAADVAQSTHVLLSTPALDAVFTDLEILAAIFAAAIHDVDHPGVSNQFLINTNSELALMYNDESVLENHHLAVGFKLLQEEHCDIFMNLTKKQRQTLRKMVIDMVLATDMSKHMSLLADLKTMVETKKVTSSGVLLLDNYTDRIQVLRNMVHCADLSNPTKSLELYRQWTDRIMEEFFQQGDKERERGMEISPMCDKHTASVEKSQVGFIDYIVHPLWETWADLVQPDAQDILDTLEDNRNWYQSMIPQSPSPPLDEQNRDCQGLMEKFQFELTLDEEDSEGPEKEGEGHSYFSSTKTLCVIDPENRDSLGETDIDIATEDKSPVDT

CN(/N=C/c1cccs1)C(=O)c1ccc2c(c1)OCO2
IC50 [1]: > 30 µM
Activity [2]: inactive
Activity [3]: inactive
Activity [4]: Dose-dependent effect
IC50 [4]: 10.2 µM
IC50 [5]: 18.5 µM

O=C(N/N=C/c1ccccc1)c1ccc2c(c1)OCO2
IC50 [4]: 81 µM
inhibition at 500 µM [6]: 70.7%
inhibition at 500 µM [7]: < 50%

O=C(N/N=C/c1ccc[nH]1)c1ccc2c(c1)OCO2
inhibition at 200 µM [8]: < 50%
inhibition at 200 µM [9]: < 50%

O=C(N/N=C/c1ccco1)c1ccc2c(c1)OCO2
inhibition at 500 µM [6]: < 50%
inhibition at 500 µM [7]: < 50%

CN(/N=C/c1ccccc1)C(=O)c1ccc2c(c1)OCO2
Activity [10]: Active
IC50 [4]: 3.5 µM
IC50 [5]: 11.1 µM

O=C(N/N=C/c1cccs1)c1ccc2c(c1)OCO2
Activity [2]: inactive
Activity [11]: inactive
Activity [3]: inactive
Activity [4]: Dose-dependent effect
IC50 [4]: 74 µM
inhibition at 100 µM [12]: < 50%

CN(/N=C/c1ccc[nH]1)C(=O)c1ccc2c(c1)OCO2
IC50 [4]: 3.1 µM
IC50 [5]: 17.8 µM

CN(/N=C/c1ccco1)C(=O)c1ccc2c(c1)OCO2
IC50 [4]: 40.8 µM
IC50 [5]: 15.7 µM
